Test results from patent publication US9233947B2, “Sulfamides as TRPM8 modulators” (Janssen Pharmaceutica, NV, priority 2008, dated 2016).

Key:
canine TRPM8 = canine TRPM8 (Canis lupus familiaris, UniProt Q1A7N1); assay: In Vitro Canine TRPM8 Functional Assay (intracellular Ca2+ fluorescence, icilin activation); format: cell-based; conditions: HEK293 cells stably expressing canine TRPM8; for IC50: icilin challenge at ~80% maximal response, eight-point dose-response, single determinations, read-out: IC50 (μM) @ 0.2; for % Inh @ 0.2 (μM) / inhibition at 0.2 µM: 0.2 μM compound, icilin challenge
Method: The functional activity of compounds of the formula (I) was determined by measuring changes in intracellular calcium concentration using a Ca^2+-sensitive fluorescent dye. The changes in fluorescent signal were monitored by a fluorescence plate reader, either a FLIPR™ (Molecular Devices) or FDSS (Hamamatsu).
At 24 hrs prior to assay, HEK293 cells stably expressing canine TRPM8 were seeded in culture medium in black wall, clear-base poly-D-lysine coated 384-well plates (BD Biosciences, NJ, USA) and grown overnight in 5% CO2 at 37° C. On assay day, growth media was removed and cells were loaded with Calcium 3 Dye (Molecular Devices) for 35 min at 37° C., under 5% CO2 and then for 25 min at room temperature and atmosphere. Subsequently, cells were tested for agonist-induced increases in intracellular Ca^2+ levels using FLIPR™ or FDSS. Cells were challenged with a compound of the Formula (I) (at varying concentrations) and intracellular Ca^2+ was measured for 5 min prior to the addition of icilin to all wells to achieve a final concentration that produces approximately an 80% maximal response. EC50 or IC50 values for compounds of the present invention were determined from eight-point dose-response studies. Curves were generated using the average of quadruplicate wells for each data point.

[1] = system: icilin-induced "wet-dog" shakes; assay: Reversal of icilin-induced "wet-dog" shaking behavior in rats; format: in vivo; conditions: 10 mg/kg p.o., 1 h post-icilin, relative to WDS count prior to test compound dose
Method: Male Sprague Dawley rats (220-450 g, Charles River Labs, n=6-9/treatment) may be used to evaluate the ability of selected compounds of the formula (I) to block icilin-induced “wet-dog” shakes (WDS). Compounds of the formula (I) may be administered in an appropriate vehicle, such as hydroxypropyl-β-cyclodextrin (HPβCD), methocellulose, 10% Solutol, or H2O, or the like, by the appropriate route, i.p. or p.o., 30-120 minutes before icilin. Icilin may be administered in PEG-400 or 10% solutol/H2O, at 1.0 or 3.0 mg/kg, i.p. and spontaneous “wet-dog” shakes may be counted 10-20 minutes post-icilin.
Compounds of the present invention capable of inhibiting the onset of icilin-induced “wet-dog” shaking behavior may also be assessed for their ability to reverse an existing icilin-induced “wet-dog” shaking behavior. In this paradigm, icilin-induced shaking is counted for 10 minutes followed by administration of a compound of the present invention in a suitable vehicle such as hydroxypropyl methylcellulose, hydroxypropyl-β-cyclodextrin or 10% Solutol in water. The diminution of shaking behavior is represented as a percent inhibition relative to icilin-induced shakes in the absence of test compound administration, as described by the following formula: % Inhibition=[1−(WDS count following test compound dose/WDS count prior to test compound dose)]×100.

Sequence of canine TRPM8 (Q1A7N1 1-1104): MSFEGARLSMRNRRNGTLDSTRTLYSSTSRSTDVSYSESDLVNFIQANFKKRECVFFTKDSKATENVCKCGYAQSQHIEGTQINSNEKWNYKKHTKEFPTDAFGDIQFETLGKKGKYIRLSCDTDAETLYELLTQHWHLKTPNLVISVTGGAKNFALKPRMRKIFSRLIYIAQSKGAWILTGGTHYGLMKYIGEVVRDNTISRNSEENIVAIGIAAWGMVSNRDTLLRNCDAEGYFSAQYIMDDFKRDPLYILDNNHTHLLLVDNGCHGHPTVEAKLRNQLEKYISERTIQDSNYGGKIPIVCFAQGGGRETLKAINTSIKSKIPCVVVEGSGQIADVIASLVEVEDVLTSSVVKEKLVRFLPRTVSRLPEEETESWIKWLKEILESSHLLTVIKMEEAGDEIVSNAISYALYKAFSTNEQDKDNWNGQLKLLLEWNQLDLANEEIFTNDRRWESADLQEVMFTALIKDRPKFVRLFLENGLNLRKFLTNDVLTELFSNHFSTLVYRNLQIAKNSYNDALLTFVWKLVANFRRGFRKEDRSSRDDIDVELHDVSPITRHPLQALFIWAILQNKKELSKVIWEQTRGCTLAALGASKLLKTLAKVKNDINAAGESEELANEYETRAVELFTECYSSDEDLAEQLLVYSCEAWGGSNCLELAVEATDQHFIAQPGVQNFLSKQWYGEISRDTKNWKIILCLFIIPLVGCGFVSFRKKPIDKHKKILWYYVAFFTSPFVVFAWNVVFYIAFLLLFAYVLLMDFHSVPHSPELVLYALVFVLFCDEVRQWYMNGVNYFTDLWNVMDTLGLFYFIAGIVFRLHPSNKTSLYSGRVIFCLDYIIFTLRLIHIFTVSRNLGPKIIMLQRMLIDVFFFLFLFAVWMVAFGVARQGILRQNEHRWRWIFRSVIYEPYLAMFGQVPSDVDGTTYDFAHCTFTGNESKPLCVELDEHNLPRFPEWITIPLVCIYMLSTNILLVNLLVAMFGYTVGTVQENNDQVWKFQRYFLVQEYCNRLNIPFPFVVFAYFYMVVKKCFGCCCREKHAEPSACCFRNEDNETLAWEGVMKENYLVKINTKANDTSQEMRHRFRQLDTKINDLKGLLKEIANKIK

| Compound | IC50 (canine TRPM8) | % Inh @ 0.2 (μM) (canine TRPM8) | inhibition at 0.2 µM (canine TRPM8) | % Inhibition [1] |
| --- | --- | --- | --- | --- |
| 4-Isopropyl-piperazine-1-sulfonic acid (3-methyl-benzo[b]thiophen-2-yl)-(4-trifluoromethoxy-benzyl)-sulfamoyl]-amide [Compound 4] | 0.06 µM |  |  |  |
| Cc1c(N(Cc2ccc(OC(F)(F)F)cc2)S(=O)(=O)N2CCN(CC(F)(F)F)CC2)sc2ccccc12 [Compound 7] | 0.013 µM | 100% |  |  |
| Cc1c(N(Cc2ccc(OC(F)(F)F)cc2)S(=O)(=O)NS(=O)(=O)N2CCN(N3CCCC3)CC2)sc2ccccc12 [Compound 9] |  | 9% |  |  |
| O=C(O)CCCNS(=O)(=O)N(Cc1ccc(F)c(C(F)(F)F)c1)c1sc2ccccc2c1Br [Compound 15, N-(3-Bromo-benzo[b]thiophen-2-yl)-N-(4-fluoro-3-trifluorobenzyl)-(N-butyric acid)-sulfonamide] | 0.018 µM | 101% |  |  |
| O=C(O)CNS(=O)(=O)N(Cc1ccc(F)c(C(F)(F)F)c1)c1sc2ccccc2c1Br [Compound 14, N-(3-Bromo-benzo[b]thiophen-2-yl)-N-(4-fluoro-3-trifluorobenzyl)-(N-acetic acid)-sulfonamide] |  | 33% |  |  |
| Cc1c(N(Cc2ccc(OC(F)(F)F)cc2)S(=O)(=O)NS(=O)(=O)N2CCC(N(C)C)CC2)sc2ccccc12 [Compound 8] |  | 36% |  |  |
| 4-Methyl-piperazine-1-sulfonic acid (3-methyl-benzo[b]thiophen-2-yl)-(4-trifluoromethoxy-benzyl)-sulfamoyl]-amide [Compound 6] | 0.046 µM | 90% |  |  |
| Cc1c(N(Cc2ccc(OC(F)(F)F)cc2)S(=O)(=O)NS(=O)(=O)N2CCNCC2)sc2ccccc12 [Compound 3] |  | 19% |  |  |
| Cc1c(N(Cc2ccc(F)c(C(F)(F)F)c2)S(=O)(=O)NCCCC(=O)O)sc2ccccc12 [Compound 13, N-(4-Fluoro-3-trifluoromethyl-benzyl)-N-(3-methyl-benzo[b]-thiophen-2-yl)-N′-(butyric acid)-sulfonamide] | 0.062 µM | 72% |  |  |
| 4-(3-Methyl-butyl)-piperazine-1-sulfonic acid (3-methyl-benzo[b]thiophen-2-yl)-(4-trifluoromethoxy-benzyl)-sulfamoyl]-amide [Compound 5] | 0.071 µM |  |  |  |
| O=C(O)CCCCNS(=O)(=O)N(Cc1ccc(F)c(C(F)(F)F)c1)c1sc2ccccc2c1Br [Compound 16] | 0.0085 µM | 101% |  |  |
| Cc1c(N(Cc2ccc(OC(F)(F)F)cc2)S(=O)(=O)N2CCOCC2)sc2ccccc12 [Compound 2, Morpholine-1-sulfonic acid (3-methyl-benzo[b]thiophen-2-yl)-(4-trifluoromethoxy-benzyl)-amide] | 0.0057 µM | 100% |  |  |
| Cc1c(N(Cc2ccc(OC(F)(F)F)cc2)S(=O)(=O)N2CCC(C(=O)N3CCN(C)CC3)CC2)sc2ccccc12 [Compound 11] |  | 30% |  |  |
| Cc1c(N(Cc2ccc(OC(F)(F)F)cc2)S(=O)(=O)N2CCC(C(=O)NCCN(C)C)CC2)sc2ccccc12 [Compound 12, 1-[(3-Methyl-benzo[b]thiophen-2-yl)-(4-trifluoromethoxy-benzyl)-sulfamoyl]-piperidine-4-carboxylic acid (2-dimethylamino-ethyl)-amide] | 0.061 µM |  | 70% |  |
| Cc1c(N(Cc2ccc(OC(F)(F)F)cc2)S(=O)(=O)N2CCC(C(=O)O)CC2)sc2ccccc12 [Compound 10, 1-[(3-Methyl-benzo[b]thiophen-2-yl)-(4-trifluoromethoxy-benzyl)-sulfamoyl]-piperidine-4-carboxylic acid] | 0.0046 µM |  | 101% | 57% |
| Cc1c(N(Cc2ccc(OC(F)(F)F)cc2)S(=O)(=O)N2CCCCC2)sc2ccccc12 [Compound 1, Piperidine-1-sulfonic acid (3-methyl-benzo[b]thiophen-2-yl)-(4-trifluoromethoxy-benzyl)-amide] | 0.0036 µM |  | 99% |  |
